Source: EP0133795B1 (THE McLEAN HOSPITAL CORPORATION, priority 1983, dated 1985)
Structures can show the parent of a compound that is named as a salt.

Experiments:
self-stimulation reward = assay: Self-stimulation reward test; type: in vivo, rats; details: for Max. DSSR: DSSR 0.3 designated as 100%
Text: The procedure measured the capacity of a given pharmacological agent to inhibit rats from receiving stimulating currents provided by electrodes implanted in their brains (lateral hypothalamus), Stellar et al, Pharmacol. Biochem. & Behav., 18,433-442 (1983). The animals will press a lever to receive a current from the implanted electrode in preference to all else. The rate at which they press the lever depends on the intensity of the current (reward) that is being produced by the electrode. The intensity of the current is varied by raising the frequency at which […] pulses (0.1 msec duration) are delivered during a 0.5 sec time span in response to a lever press. A plot of the log of the frequency of the delivered pulses vs. the rate of lever presses for an animal gives a self-stimulation reward curve. Injection of a drug which has a tranquilizing effect shifts such a curve to higher frequencies. The shift of this curve (measured at the halfway point) gives a parameter which is expressed as the "Depression of the Self-Stimulation Reward" or DSSR. The maximum DSSR value obtained for the most powerful neutoleptics and tranquilizing compounds tested so far, seldom exceeds 0.3. This is designated as 100%. In the actual tests, the maximum DSSR value obtained for a given dose of drug and the half-life time [duration half-life (DHL)] of its return to 0% (the control state) was measured.

[1] = tested on: bicuculline-induced epileptic seizures; assay: Delay of onset of bicuculline-induced seizures (anticonvulsant activity); type: in vivo, mouse; details: 84 mg/kg; 24 hr pretreatment; bicuculline 0.3 mg/kg; mean ± SEM, n ≥ 6
Method: In a second behavioral test, the ability of a substance to prevent or delay the onset of biculline-induced epileptic seizures was measured. […] At 24 hr after i.p. injection of the cholesteryl derivative at a dose of 30 mg/kg (64 pmol/kg), the onset of seizures was delayed by 30% after an acute i.p. injection of bicuculline at 0.3 mg/kg. […] The dexamethasone and butyl esters had no effect.
The compounds were also injected i.p. at 1, 6 and 24 hr before the administration of bicuculline (0.3 mg/kg) s.c. The latency to the onset of generalized tonic-clonic epileptic seizures and the protection against the lethality of bicuculline were measured and evaluated as a percent of the data for vehicle-injected controls. No significant changes were obtained at the 1 hr and 6 hr time points. At the 24 hr time, however, some compounds delayed while others accelerated the onset of seizures.
The effect of the compound to delay the onset of a bicuculline-induced seizures was evaluated.
The ability of a substance to delay the onset of bicuculline-induced epileptic seizures in the mouse was measured (Table X). […] At 24 hr after i.p. injection of the cholesteryl derivative (6) at a dose of 30 mg/kg (64 pmol/kg), the onset of seizures was delayed by 30% (as compared to saline controls) after an acute i.p. injection of bicuculline at 0.3 mg/kg. […] The dexamethasone and butyl esters had no effect on seizures in mice.

CAI pyramidal cells = type: cell-based, Sprague-Dawley rats
Method: Transverse slices of hippocampus (350-375 µm thick) were prepared from Sprague-Dawley rats (200-300 g) and transferred onto a nylon net fixed over a 1.5 ml superfusion chamber. The slices were maintained at 32-33°C in a humidified atmosphere of 95%/5% 02/C02. The standard medium consisted of (in mM): NaCl, 125; KCI, 3.5; CaC12,2; MgS04, 1.5; NaH2PO4, 1; NaHC03, 24; and glucose, 10. Low chloride medium was prepared by substituting sodium isethionate for sodium chloride.
Extracellular potentials were recorded with NaCI-fitted micropipettes, and stimulus pulses were applied through bipolar platinum wire electrodes. The various drugs were dissolved in fresh medium (without glucose and phosphate) and applied to the surface of the tissue by pressure ejection from a micropipette, Sakai, Swartz and Woody, (1979).
The inhibitory effectiveness of various compounds was investigated by measuring their ability to suppress the extracellular population spike recorded from the hippocampal CAI pyramidal layer and elicited by stimulation of stratum radiatum axons. The amplitude of this monosynaptic population spike is essentially proportional to the number of pyramidal cells discharging in response to a stimulus volley, Andersen, Bliss and Skrede, (1971).
The various compounds were applied as droplets to the pyramidal layer approximately 75 µm from the recording electrode. The volume of a single drug application was about 300 picoliters. […] The volume ejected from each pipette was calibrated prior to use by measuring the diameter of the ejected droplet and adjusting the duration of the pressure pulse (usually 100-500 msec) until a standard diameter was reached. A constant droplet volume was used throughout the experiments. Where dose-response information was required, several pipettes with different drug concentrations were used.

1-Linolenoyl 2-gamma-aminobutyryl 3-gamma-vinyl-gamma-aminobutyryl glycerol dihydrochloride [Compound 40]
Max. DSSR (self-stimulation reward; dose 16 μm/kg, Depression of the Self-Stimulation Reward): 90
DHL (self-stimulation reward; dose 16 μm/kg, duration half-life of return to 0%): 30 min

C=CC(N)CCC(=O)O[C@H]1CC[C@@]2(C)C(=CC[C@H]3[C@@H]4CC[C@H]([C@H](C)CCCC(C)C)[C@@]4(C)CC[C@@H]32)C1 (stereo partly drawn) [Compound 33, Cholesteryl gamma-vinyl gamma-aminobutyrate hydrochloride]
Max. DSSR (self-stimulation reward; dose 40 μm/kg): 83
DHL (self-stimulation reward; dose 40 μm/kg, duration half-life of return to 0%): 1440 to 2880 min

CC(C)CCC[C@@H](C)[C@H]1CC[C@H]2[C@@H]3CC=C4C[C@@H](O)CC[C@]4(C)[C@H]3CC[C@]12C [cholesterol, reference compound]
Onset of seizures: % Saline Control [1]: 118 ± 6 % Saline Control
Survival Time: % Saline Control [1]: 110 ± 7 % Saline Control

C=CC(N)CCC(=O)O (stereo not drawn) [gamma-vinyl GABA, reference compound]
Max. DSSR (self-stimulation reward; dose 31 μm/kg): 0
DHL (self-stimulation reward; dose 31 μm/kg, duration half-life): 0

NCc1cc(=O)[nH]o1 [muscimol]
duration of effect relative to a comparably effective dose of GABA (CAI pyramidal cells): roughly 100 times
effect with picrotoxin (10 µM) in the medium or low chloride medium (CAI pyramidal cells): little effect
doses required relative to GABA for effects of comparable magnitude (CAI pyramidal cells; concentration in the drug pipette): nearly a thousand-fold lower
inhibition of the evoked population spike (CAI pyramidal cells; droplets applied to the CAI pyramidal layer): dose-dependent inhibition
